Results on eleven compounds are retold here after patent US8092789B1, “Indian meal moth attractant” (The United States of America, as represented by the …, priority 2009, dated 2012).

This experiment deals with Plodia interpunctella adult females. The experiment in a line: flight tunnel bioassay of attraction (upwind progress score). The conditions noted are these: for Score (flight tunnel bioassay): day 22 Plodia females, ten females per test, observed ten minutes, 0.25 per quarter line crossed and for contact. The format is in vivo. The arrangement: key to Score (flight tunnel bioassay): 0.25 per quarter line crossed; final 0.25 for contacting test subject. As for the experimental part: All tests were conducted in a clear, acrylic flight chamber 75 cm (L), 22 cm (W), 24 cm (H). Room air was pushed through the chamber with a 115 volt, 0.35 Amp motor-driven roller fan. Air speed was maintained at 0.4 m/sec. The chamber was positioned horizontally on a table in a walk-in environmental chamber maintained at 30° C. and 65% R.H. The only light was provided by a 25 Watt red filtered incandescent bulb centrally positioned 90 cm above tunnel floor and providing 9.0 Lux at the floor center.
Insects used were laboratory reared Plodia interpuctella. Ten 4-day old adult females from a general rearing box were selected and transferred into a 7 dram screened plastic vial for each test. Tests were performed only during the first four hours of the scotophase. Test subjects consisted of either natural products held in a glass Petri dish (Kimax, 5 cm diameter) or liquid volatiles pipetted onto a filter paper disc (Whatman #3, 2.3 cm) held off the floor by a plastic disc (5 cm diameter). These were placed upwind. A test began when the vial containing the moths was placed on the floor down-wind and the lid of the vial was removed. Distance between vial and test material was 62 cm. […] A final 0.25 was scored for actually contacting the test subject. Individual moths were tested only once.
Volatiles from natural products were collected for twenty-four hours by passing commercial, compressed nitrogen through a 150 cm^3 glass collection chamber (Analytical Research Systems) connected by tubing to an inert filter trap of 20 mg SuperQ (Alltech Associates). The collected volatiles were eluted with 150 ul dichloromethane and then bioassayed in the flight tunnel and analyzed by GC-MS. The SuperQ filter traps were rinsed with 200 ul dichloromethane immediately before each use.

Structures are written as SMILES.

For the compound `CCCCC(C)=O` [2-hexanone], the “Score (flight tunnel bioassay)” value is, setting by setting: (Table 1) 3.63; (Table 2) 3.63.

Consider `Cc1ccc(C(C)C)cc1` [cymene], for which the “Score (flight tunnel bioassay)” value runs as follows: (Table 1) 3.00; (Table 2) 3.00.

For the compound `CC1=CC[C@H]2[C@H]3[C@@H]1[C@]2(C)CC[C@H]3C(C)C` [a-copaene], the “Score (flight tunnel bioassay)” value by setting is: (Table 1) 3.07; (Table 2) 3.07.

Regarding `CC1(C)C2CCC1(C)C(O)C2` (stereo not drawn) [borneol], the “Score (flight tunnel bioassay)” value was 2.83 (Table 1) and 2.83 (Table 2).

On to `CCC/C=C/CO` [trans-2-hexen-1-ol], for which the “Score (flight tunnel bioassay)” value runs as follows: (Table 1) 3.00; (Table 2) 3.00.

As for `CCCCCCCC(=O)OC` [methyl octanoate], the “Score (flight tunnel bioassay)” value by setting is: (Table 1) 2.91; (Table 2) 2.91.

For the compound `CCCCCC=CCCC(=O)OCC` [ethyl 4-decenoate], the “Score (flight tunnel bioassay)” value is, setting by setting: (Table 1) 3.50; (Table 2) 3.50.

With `CCCCCCOC(C)=O` [hexyl acetate], the “Score (flight tunnel bioassay)” value is given as 3.60 (Table 1) and 3.60 (Table 2).

As to `CCOc1cc(C=O)ccc1O` [ethyl vanillin], the “Score (flight tunnel bioassay)” value was determined as 2.63 (Table 1) and 2.63 (Table 2).

For `CCCCCCCCCCC` [undecane], the attractiveness alone result (dilutions in dichloromethane, FIG. 3) is recorded as “unattractive alone”.

In the case of `C=CC(=C)CCC=C(C)C` [myrcene], the “Score (flight tunnel bioassay)” value is listed as 2.95 (Table 1) and 2.95 (Table 2).
